Counter-ions that a name gives are not always drawn. Like-named read-outs stand apart in the source and are kept apart here.
Columns and labels:
Format in all cases: biochemical
VIM-2 = VIM-2 (Escherichia coli, UniProt Q5U7L7); experiment: MBL inhibition, FC-5 fluorescence assay, VIM-2
Description: (§1) Inhibitors were tested using a panel of the clinically relevant B1 MBLs (NDM-1, VIM-1, -2 and IMP-1). Activities were assayed by monitoring the release of a fluorophore following the enzymatic breakdown of the cephalosporin FC-5 (https://pubs.acs.org/doi/abs/10.1021/jm400769b). FC-5 assays were conducted in clear bottomed 384 black well microplates (Greiner); the initial rate of reaction was assessed by monitoring the fluorescence intensity (λex=380 nm and λem=460 nm) using a Pherstar FS (BMG LabTech) plate reader. Initial rates of reaction were determined and dose-response analyses conducted in GraphPad Prism. Dose-response curves were fitted using the log(inhibitor) vs normalized response—variable slope model of GraphPad Prism 12. Each concentration point for routine screening was conducted with 4 intra-plate replicates.

NDM-1 = NDM-1 (Klebsiella pneumoniae, UniProt C7C422); experiment: MBL inhibition, FC-5 fluorescence assay, NDM-1
Description: as §1

IMP-1 = IMP-1 (Serratia marcescens, UniProt P52699); experiment: MBL inhibition, FC-5 fluorescence assay, IMP-1
Description: as §1

VIM-1 = VIM-1 (Pseudomonas aeruginosa, UniProt A0A0F7KYQ8); experiment: MBL inhibition, FC-5 fluorescence assay, VIM-1
Description: as §1

[1] = FC-5 cephalosporin substrate, ranges of obtained pIC50, read-out: pIC50 VIM-2 (converted)
[2] = FC-5 cephalosporin substrate, fluorescence, ranges of obtained pIC50, read-out: pIC50 NDM-1 (converted)
[3] = FC-5 cephalosporin substrate, fluorescence, ranges of obtained pIC50, read-out: pIC50 IMP-1 (converted)
[4] = FC-5 cephalosporin substrate, ranges of obtained pIC50, read-out: pIC50 VIM-1 (converted)
[5] = pIC50 VIM-2, FC-5 cephalosporin substrate, ranges of obtained pIC50
[6] = pIC50 VIM-1, FC-5 cephalosporin substrate, ranges of obtained pIC50

Chain of IMP-1 (P52699 19-246, looked up, species assumed): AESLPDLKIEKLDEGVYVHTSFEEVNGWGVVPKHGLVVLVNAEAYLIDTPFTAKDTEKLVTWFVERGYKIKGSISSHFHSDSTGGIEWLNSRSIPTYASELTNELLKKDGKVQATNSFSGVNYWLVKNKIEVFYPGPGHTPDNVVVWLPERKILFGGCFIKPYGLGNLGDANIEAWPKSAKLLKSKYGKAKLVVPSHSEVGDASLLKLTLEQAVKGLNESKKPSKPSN
Chain of NDM-1 (C7C422 29-270, looked up, species assumed): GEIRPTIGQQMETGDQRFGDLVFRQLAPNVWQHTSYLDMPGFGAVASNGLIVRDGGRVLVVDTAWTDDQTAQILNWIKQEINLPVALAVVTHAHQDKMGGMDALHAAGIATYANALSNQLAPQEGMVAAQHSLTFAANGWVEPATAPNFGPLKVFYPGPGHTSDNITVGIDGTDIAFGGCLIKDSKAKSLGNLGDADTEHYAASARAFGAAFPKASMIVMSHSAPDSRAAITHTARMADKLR

Row | IC50 (VIM-2; [1]) [nM] | IC50 (NDM-1; [2]) [nM] | IC50 (IMP-1; [3]) [nM] | IC50 (VIM-1; [4]) [nM] | SMILES | IC50 (VIM-2; [5]) [nM] | IC50 (NDM-1) [nM] | IC50 (IMP-1) [nM] | IC50 (VIM-1; [6]) [nM]
1 | < 0.1 | 0.1 to 1 | > 10 | > 10 | CC(c1cccc2c(-c3ccc(CS(C)(=O)=O)c(Cl)c3)c(C(=O)O)[nH]c12)n1cc(CCCN)nn1 (stereo not shown) [IC-10, 7-[1-[4-(3-Aminopropyl)triazol-1-yl]ethyl]-3-[3-chloro-4-(methylsulfonylmethyl)phenyl]-1H-indole-2-carboxylic acid] | – | – | – | –
2 | 1 to 10 | 1 to 10 | > 10 | > 10 | CC(c1cccc2c(-c3ccc(CS(C)(=O)=O)c(F)c3)c(C(=O)O)[nH]c12)n1cc(CCCN)[nH]c1=O (stereo not shown) [IC-64, 7-[1-[5-(3-Aminopropyl)-2-oxo-1H-imidazol-3-yl]ethyl]-3-[3-fluoro-4-(methylsulfonylmethyl)phenyl]-1H-indole-2-carboxylic acid] | – | – | – | –
3 | 1 to 10 | 0.1 to 1 | > 10 | 1 to 10 | CC(c1cccc2c(-c3ccc(CS(C)(=O)=O)c(F)c3)c(C(=O)O)[nH]c12)n1cc(CCCNC(=N)N)oc1=O (stereo not shown) [IC-73, 3-(3-Fluoro-4-((methylsulfonyl)methyl)phenyl)-7-(1-(5-(3-guanidinopropyl)-2-oxooxazol-3(2H)-yl)ethyl)-1H-indole-2-carboxylic acid hydrochloride] | – | – | – | –
4 | 1 to 10 | 0.1 to 1 | > 10 | 1 to 10 | CC(c1cccc2c(-c3ccc(CS(C)(=O)=O)c(F)c3)c(C(=O)O)[nH]c12)n1cc(CCCN(C)C)oc1=O (stereo not shown) [IC-75, 7-(1-(5-(3-(Dimethylamino)propyl)-2-oxooxazol-3(2H)-yl)ethyl)-3-(3-fluoro-4-((methylsulfonyl)methyl)phenyl)-1H-indole-2-carboxylic acid] | – | – | – | –
5 | > 10 | 1 to 10 | > 10 | > 10 | CC(c1cccc2c(-c3ccc(CS(C)(=O)=O)c(F)c3)c(C(=O)O)[nH]c12)n1cc(CO)oc1=O (stereo not shown) [IC-78, 3-(3-Fluoro-4-((methylsulfonyl)methyl)phenyl)-7-(1-(5-(hydroxymethyl)-2-oxooxazol-3(2H)-yl)ethyl)-1H-indole-2-carboxylic acid] | – | – | – | –
6 | 1 to 10 | 0.1 to 1 | > 10 | 1 to 10 | CC(c1cccc2c(-c3ccc(CS(C)(=O)=O)c(F)c3)c(C(=O)O)[nH]c12)n1cc(CN2CC[C@H](N)C2)oc1=O (stereo partly drawn) [IC-81, 7-[1-[5-[[(3S)-3-Aminopyrrolidin-1-yl]methyl]-2-oxo-oxazol-3-yl]ethyl]-3-[3-fluoro-4-(methylsulfonylmethyl)phenyl]-1H-indole-2-carboxylic acid] | – | – | – | –
7 | 0.1 to 1 | 0.1 to 1 | > 10 | 1 to 10 | CC(c1cccc2c(-c3ccc(CS(C)(=O)=O)c(F)c3)c(C(=O)O)[nH]c12)n1cc(CN2CC[C@@H](N)C2)oc1=O (stereo partly drawn) [IC-82, 7-[1-[5-[[(3R)-3-Aminopyrrolidin-1-yl]methyl]-2-oxo-oxazol-3-yl]ethyl]-3-[3-fluoro-4-(methylsulfonylmethyl)phenyl]-1H-indole-2-carboxylic acid] | – | – | – | –
8 | > 10 | 0.1 to 1 | > 10 | > 10 | CS(=O)(=O)Cc1ccc(-c2c(C(=O)O)[nH]c3c(COCc4ccc(CN)cc4)cccc23)cc1F [IC-85, 7-(((4-(Ammoniomethyl)benzyl)oxy)methyl)-3-(3-fluoro-4-((methylsulfonyl)methyl)phenyl)-1H-indole-2-carboxylate] | – | – | – | –
9 | > 10 | > 10 | > 10 | > 10 | CC(OCc1cnn[nH]1)c1cccc2c(-c3ccc(CS(C)(=O)=O)c(F)c3)c(C(=O)O)[nH]c12 (stereo not shown) [IC-91, 7-(1-((1H-1,2,3-triazol-5-yl)methoxy)ethyl)-3-(3-fluoro-4-((methylsulfonyl)methyl)phenyl)-1H-indole-2-carboxylic acid] | – | – | – | –
10 | 1 to 10 | 1 to 10 | > 10 | > 10 | CC(Nc1ncc(CCCN)o1)c1cccc2c(-c3ccc(CS(C)(=O)=O)c(F)c3)c(C(=O)O)[nH]c12 (stereo not shown) [IC-93, 7-(1-((5-(3-Aminopropyl)oxazol-2-yl)amino)ethyl)-3-(3-fluoro-4-((methylsulfonyl)methyl)phenyl)-1H-indole-2-carboxylic acid] | – | – | – | –
11 | 1 to 10 | 1 to 10 | > 10 | > 10 | CC(Nc1ncc(CCN)o1)c1cccc2c(-c3ccc(CS(C)(=O)=O)c(F)c3)c(C(=O)O)[nH]c12 (stereo not shown) [IC-94, 7-(1-((5-(2-aminoethyl)oxazol-2-yl)amino)ethyl)-3-(3-fluoro-4-((methylsulfonyl)methyl)phenyl)-1H-indole-2-carboxylic acid] | – | – | – | –
12 | 1 to 10 | 1 to 10 | > 10 | > 10 | CC(OC(=O)Nc1ccc(CN)cc1)c1cccc2c(-c3ccc(CS(C)(=O)=O)c(F)c3)c(C(=O)O)[nH]c12 (stereo not shown) [IC-96, 7-(1-(((4-(Aminomethyl)phenyl)carbamoyl)oxy)ethyl)-3-(3-fluoro-4-((methylsulfonyl)methyl)phenyl)-1H-indole-2-carboxylic acid] | – | – | – | –
13 | > 10 | > 10 | > 10 | > 10 | CC(c1cccc2c(-c3ccc(CS(C)(=O)=O)c(F)c3)c(C(=O)O)[nH]c12)N1C(=O)c2cc(O)c(O)cc2C1=O (stereo not shown) [IC-98, 7-[1-(5,6-Dihydroxy-1,3-dioxo-2,3-dihydro-1H-isoindol-2-yl)ethyl]-3-[3-fluoro-4-(methanesulfonylmethyl)phenyl]-1H-indole-2-carboxylic acid] | – | – | – | –

The next lines start with the compound.

Row | SMILES | IC50 (VIM-2; [1]) [nM] | IC50 (NDM-1; [2]) [nM] | IC50 (IMP-1; [3]) [nM] | IC50 (VIM-1; [4]) [nM] | IC50 (VIM-2; [5]) [nM] | IC50 (NDM-1) [nM] | IC50 (IMP-1) [nM] | IC50 (VIM-1; [6]) [nM]
14 | CC(c1cccc2c(-c3ccc(CS(C)(=O)=O)c(F)c3)c(C(=O)O)[nH]c12)N1CCNCC1 (stereo not shown) [IC-12, 3-(3-Fluoro-4-((methylsulfonyl)methyl)phenyl)-7-(1-(piperazin-1-yl)ethyl)-1H-indole-2-carboxylic acid] | – | – | – | – | 1 to 10 | > 10 | > 10 | > 10
15 | C[C@@H](c1cccc2cc(C(=O)O)[nH]c12)N1C[C@]2(C[C@@H](CN)C2)OC1=O [IC-30] | > 10 | > 10 | > 10 | > 10 | – | – | – | –
16 | C[C@@H](c1cccc2c(-c3cc(O)nc(O)c3)c(C(=O)O)[nH]c12)N1C[C@]2(C[C@@H](CN)C2)OC1=O [IC-31, 3-(2,6-dihydroxypyridin-4-yl)-7-[(1S)-1-[(2r,4r)-2-(aminomethyl)-6-oxo-5-oxa-7-azaspiro[3.4]octan-7-yl]ethyl]-1H-indole-2-carboxylic acid] | 1 to 10 | 1 to 10 | > 10 | > 10 | – | – | – | –
17 | C[C@@H](c1cccc2c(N3CCS(=O)(=O)CC3)c(C(=O)O)[nH]c12)N1C[C@]2(C[C@@H](CN)C2)OC1=O [IC-40, 7-((S)-1-((2S,4r)-2-(aminomethyl)-6-oxo-5-oxa-7-azaspiro[3.4]octan-7-yl)ethyl)-3-(1,1-dioxidothiomorpholino)-1H-indole-2-carboxylic acid] | > 10 | > 10 | 1 to 10 | > 10 | – | – | – | –
18 | C[C@@H](c1cccc2c(-c3ccc4c(c3)CC(=O)N4)c(C(=O)O)[nH]c12)N1C[C@]2(C[C@@H](CN)C2)OC1=O [IC-41, 7-((S)-1-((2S,4r)-2-(aminomethyl)-6-oxo-5-oxa-7-azaspiro[3.4]octan-7-yl)ethyl)-3-(2-oxoindolin-5-yl)-1H-indole-2-carboxylic acid] | 1 to 10 | 0.1 to 1 | > 10 | 1 to 10 | – | – | – | –
19 | C[C@@H](c1cccc2c(-c3cnc(N)nc3)c(C(=O)O)[nH]c12)N1C[C@]2(C[C@@H](CN)C2)OC1=O [IC-42, 7-((S)-1-((2S,4r)-2-(aminomethyl)-6-oxo-5-oxa-7-azaspiro[3.4]octan-7-yl)ethyl)-3-(2-aminopyrimidin-5-yl)-1H-indole-2-carboxylic acid] | 0.1 to 1 | 0.1 to 1 | > 10 | 1 to 10 | – | – | – | –
20 | C[C@@H](c1cccc2c(-c3cn[nH]c3)c(C(=O)O)[nH]c12)N1C[C@]2(C[C@@H](CN)C2)OC1=O [IC-43, 7-((S)-1-((2S,4r)-2-(aminomethyl)-6-oxo-5-oxa-7-azaspiro[3.4]octan-7-yl)ethyl)-3-(1H-pyrazol-4-yl)-1H-indole-2-carboxylic acid] | 1 to 10 | 0.1 to 1 | > 10 | > 10 | – | – | – | –
21 | CC(c1noc(C2CNC(=O)C2)n1)c1cccc2c(-c3ccc(CS(C)(=O)=O)c(F)c3)c(C(=O)O)[nH]c12 (stereo not shown) [IC-63, 3-[3-Fluoro-4-(methylsulfonylmethyl)phenyl]-7-[1-[5-(5-oxopyrrolidin-3-yl)-1,2,4-oxadiazol-3-yl]ethyl]-1H-indole-2-carboxylic acid] | < 0.1 | 1 to 10 | > 10 | > 10 | – | – | – | –
22 | CC(c1cccc2c(-c3ccc(CS(C)(=O)=O)c(F)c3)c(C(=O)O)[nH]c12)n1cc(CCC[N+](C)(C)C)oc1=O (stereo not shown) [IC-76, 3-(3-(1-(2-carboxy-3-(3-fluoro-4-((methylsulfonyl)methyl)phenyl)-1H-indol-7-yl)ethyl)-2-oxo-2,3-dihydrooxazol-5-yl)-N,N,N-trimethylpropan-1-aminium] | – | – | – | – | > 10 | 1 to 10 | > 10 | > 10

— US20240246913A1, “2-CARBOXYL-INDOLE INHIBITORS OF METALLO-BETA-LACTAMASES” (Oxford University Innovation Limited, priority 2021, published 2024)
